Experimental data published in US7375135B2, “Fatty acid derivatives; preparation and uses thereof” (Genfit, priority 2001, dated 2008).

Assays:
[1] = Plasma cholesterol and triglycerides in Zucker rats; assay type: in vivo, rat
Source text: (§1) Male C57BL/6 mice (Charles River, L'Arbresle, France) aged 6 weeks at the start of the experiments were randomly divided into groups of 6 animals such that body weight distribution was uniform. Mice were given a low-fat diet (UAR AO4), a high-fat diet (29% (m/m) coconut oil) or the same enriched diet supplemented with the test compounds. Obese male Zucker rats (fa/fa) or non obese rats (fa/+) aged 5 or 21 weeks (Charles River, L'Arbresle, France) were divided into groups of 8 animals selected such that the distribution of plasma cholesterol and triglyceride levels was uniform, and maintained on a standard diet. Animals were housed in a 12 hour light/dark cycle at a constant temperature of 20° C.±3° C. Animals had access to food and water ad libitum. Food intake and weight increase were recorded. The test compounds were suspended in carboxymethylcellulose and administered by gastric lavage at the indicated doses, once a day for 15 days. At the end of treatment, some animals underwent a glucose tolerance test as described hereinbelow. At the end of the experiment the other animals were weighed and sacrificed under anesthesia after a 5 hour fast. Blood was collected on EDTA. Plasma was prepared by centrifugation at 3000 rpm for 20 minutes. Liver samples were removed and stored frozen in liquid nitrogen for subsequent analysis.
Plasma lipid concentrations (total cholesterol and triglycerides) were determined by a colorimetric assay (Bio-Mérieux, Marcy l'Etoile, France) according to the supplier's instructions.

[2] = Glucose tolerance test in Zucker rats; assay type: in vivo, rat; settings: 300 mg/kg/d
Source text: as §1
Insulinemia was assayed on serum or plasma collected on EDTA. […]

[3] = system: hepatic expression of ACO, CPT-I, CPT-II, Apo AI, Apo CIII genes; test: Hepatic gene expression (RT-PCR) in treated Sprague-Dawley rats; assay type: in vivo, rat; settings: 300 mg/kg/d
Procedure: (§2) Sprague-Dawley or Wistar rats weighing 200 to 230 g (Charles River, L'Arbresle, France) were housed in a 12-hour light/dark cycle at a constant temperature of 20±3° C. After a 1-week acclimatization period, rats were weighed and distributed into groups of 8 animals selected such that the distribution of plasma cholesterol and triglyceride levels was uniform. The test compounds were suspended in carboxymethylcellulose and administered by gastric lavage at the indicated doses, once a day for 15 days. Animals had access to food and water ad libitum. At the end of the experiments, animals were weighed and sacrificed under anesthesia after a 5-hour fast. Blood was collected on EDTA. Plasma was isolated by centrifugation at 3000 rpm for 20 minutes. Liver samples were removed and stored frozen in liquid nitrogen until further analysis.
(§3) Total RNA was isolated from the liver fragments by extraction with a mixture of guanidine thiocyanate/phenol acid/chloroform as previously described (Raspé et al., J. Lipid Res. 40, 2099-2110, 1999). Messenger RNA was quantified by semi-quantitative or quantitative RT-PCR with the Light Cycler Fast Start DNA Master Sybr Green I kit (Hoffman-La Roche, Basel, Switzerland) on a Light Cycler System (Hoffman-La Roche, Basel, Switzerland). Primer pairs specific for the ACO, Apo CIII, Apo AI, CPT-I and CPT-II genes were used as probes. Primer pairs specific for the 36B4, β-actin and GAPDH genes were used as control probes (see table I).

[4] = Plasma insulin and glucose balance in Zucker rats; assay type: in vivo, rat; settings: 300 mg/kg/d
Source text: as §1
Blood glucose was determined by a colorimetric enzymatic assay (Sigma Aldrich, St Louis, Mo., USA).
Insulinemia was assayed on serum or plasma collected on EDTA.

PPARα = PPARα activation in vitro in HepG2 cells (Gal4 DNA binding domain / PPARα ligand binding domain chimera); assay type: cell-based; settings: dose-dependent, FIG. 11
Procedure: Plasmids pG5TkpGL3, pGal4-hPPARα, pGal4-hPPARγ and pGal4-φ have been described previously (Raspé et al., J. Lipid Res. 40, 2099-2110, 1999). The pGal4-mPPARα and pGal4-hPPARδ constructs were obtained by cloning PCR-amplified DNA fragments corresponding to the DEF domains of the mouse PPARα and human PPARδ nuclear receptors into the pGal4-φ vector.
HepG2 and RK13 cells were from ECACC (Porton Down, UK) and were grown in DMEM medium supplemented with 10% (VN) fetal calf serum, 100 U/ml penicillin (Gibco, Paisley, UK) and 2 mM L-glutamine (Gibco, Paisley, UK). The culture medium was replaced every two days. Cells were kept at 37° C. in a humidified 5% CO2/95% air atmosphere.
HepG2 and RK13 cells seeded in 24-well culture dishes at a rate of 10^5 cells/well for HepG2 cells and 5×10^4 cells/well for RK13 cells were transfected for 2 hours with the reporter plasmid pG5TkpGL3 (10 ng/well), the expression vectors pGal4-φ, pGal4-mPPARα, pGal4-hPPARα, pGal4-hPPARγ, pGal4-hPPARδ (10 ng/well) and the transfection efficiency control vector pRL-null (Promega Madison, Wis., USA) (20 ng/well) according to the protocol previously described (Raspé et al., J. Lipid Res. 40, 2099-2110, 1999) and incubated for 36 hours with the test compounds. […]

[5] = Plasma lipids and their distribution in lipoparticles in Sprague-Dawley rats; assay type: in vivo, rat; settings: 300 mg/kg/d
Procedure: as §2
(§4) Lipid concentrations in plasma (total cholesterol and free cholesterol, triglycerides and phospholipids) were determined by a colorimetric assay (Bio-Mérieux, Marcy I'Etoile, France) according to the supplier's instructions. Plasma concentrations of apolipoproteins AII, AI and CIII were determined as previously described (Raspé et al., J. Lipid Res. 40, 2099-2110, 1999, Asset G et al., Lipids, 34, 39-44, 1999).
To separate the lipoproteins according to size, 300 μl of plasma were loaded on a Sepharose 6HR 10/30 column (Pharmacia, Uppsala, Sweden) and eluted at a constant flow rate (0.2 ml/minute) in PBS (pH 7.2). Optical density of the eluent was recorded at 280 nm. 0.3 ml fractions were collected. Lipid concentrations in the different fractions were determined by a colorimetric assay (Bio-Mérieux, Marcy I'Etoile, France) according to the supplier's instructions.

ABCA1 gene expression = test: ABCA1 and LXRα gene expression in human macrophages; assay type: cell-based; settings: compound solubilized according to example 6, dose-dependent, FIG. 12
Procedure: THP-1 monocytes (ATCC, Rockville, Md., USA) were placed in 6-well culture dishes in the presence of PMA (phorbol myristate acetate) and fetal calf serum and incubated at 37° C. for 48 hours to allow them to differentiate to macrophages.
To obtain primary macrophages, mononuclear cells were isolated from human blood as previously described (Chinetti et al. Nat. Medecine 7(1), 53-58, 2001), placed in 6-well culture dishes and grown for 10 days in the presence of human serum to enable adherence and differentiation of the primary monocytes to macrophages.
Treatment with the different compounds was carried out for 48 hours in medium without human or fetal calf serum but supplemented with 1% Nutridoma HU serum (Boehringer).
Total RNA was extracted from treated macrophages with the mini RNeasy kit (Qiagen, Hilden, Germany) according to the supplier's instructions, assayed by spectrometry and quantified by quantitative RT-PCR with the Light Cycler Fast DNA Master Green I kit (Hoffman-La Riche, Basel, Switzerland) on a Light Cycler System (Hoffman-La Riche, Basel, Switzerland). Primer pairs specific for the ABCA1 and LXRα genes were used as probes.

[6] = Plasma cholesterol and triglycerides in Wistar rats; assay type: in vivo, rat; settings: 300 mg/kg/d, after 14 days of treatment
Procedure: as §2, with “The test compounds were suspended in carboxymethylcellulose and administered by gastric lavage at the indicated doses, once a day for 15 days.” left out
as §4

[7] = system: hepatic expression of the ACO gene; test: Hepatic ACO gene expression in treated Wistar rats; assay type: in vivo, rat; settings: 300 mg/kg/d, FIG. 9C
Procedure: as §2
as §3, with “Primer pairs specific for the 36B4, β-actin and GAPDH genes were used as control probes (see table I).” left out

CCCCCCCCCCCCCCSCC(=O)OCC(COC(=O)CSCCCCCCCCCCCCCC)OC(=O)CSCCCCCCCCCCCCCC [Example 4a, 1,2,3-tritetradecylthioacetylglycerol]
total plasma cholesterol (gradual increase versus control group) ([1]; 300 mg/kg/d, FIG. 6A): said increase was slower | plasma triglycerides (gradual increase versus control group) ([1]; 300 mg/kg/d, FIG. 6B): said increase was markedly slower | plasma triglyceride levels, dose-effect relation ([1]; doses of 0 to 600 mg/kg/d, FIG. 10): gradual dose-dependent decrease in triglyceride levels | plasma insulin levels during a glucose tolerance test ([2]; FIG. 8): used less insulin in response to the glucose injection | insulin sensitivity ([2]; concluded from glucose tolerance test): increase in insulin sensitivity | hepatic expression of ACO ([3]; FIG. 5A): strong activation of hepatic expression of ACO | hepatic expression of CPT-I ([3]; FIG. 5A): smaller increase in the expression of the genes CPT-I and CPT-II | hepatic expression of CPT-II ([3]; FIG. 5A): smaller increase in the expression of the genes CPT-I and CPT-II | hepatic Apo AI expression ([3]; FIG. 5B): slight decrease in hepatic Apo AI expression | hepatic Apo CIII expression ([3]; FIG. 5B): more marked decrease in Apo CIII expression | plasma glucose levels ([4]; FIG. 7): glucose levels were equivalent in the two groups | insulin sensitivity ([4]; concluded from insulin and glucose levels): increased insulin sensitivity | plasma insulin levels (gradual compensatory increase versus control group) ([4]; especially after 14 days, FIG. 7): said increase was slower | PPARα activation in vitro (PPARα): very strong activation of the PPARα nuclear receptor | cholesterol distribution in lipoparticles (size exclusion chromatography) ([5]; FIG. 2A): decrease in cholesterol in the different lipoparticle classes | total plasma cholesterol levels ([5]; FIG. 2B): reduction of total plasma cholesterol levels | triglyceride distribution in lipoparticles (size exclusion chromatography) ([5]; FIG. 3A): decrease in triglycerides in this lipoparticle class | plasma triglyceride levels ([5]; FIG. 3B): reduction of plasma triglyceride levels | phospholipid distribution in lipoparticles (size exclusion chromatography) ([5]; FIG. 4A): decrease in phospholipids in the different lipoparticle classes | total plasma phospholipid levels ([5]; FIG. 4B): reduction of total plasma phospholipid levels | ABCA1 gene expression (ABCA1 gene expression): very strong activation of ABCA1 gene expression

CCCCCCCCCCCCCCCC(=O)OCC(COC(=O)CCCCCCCCCCCCCCC)OC(=O)CSCCCCCCCCCCCCCC [Example 4g, 1,3-dipalmitoyl-2-tetradecylthioacetylglycerol]
plasma cholesterol ([6]; FIG. 9A): decrease in circulating cholesterol and triglyceride levels | plasma triglycerides ([6]; FIG. 9B): decrease in circulating cholesterol and triglyceride levels | hepatic expression of the ACO gene [7]: marked activation of hepatic expression of the ACO gene
